Test results from patent US5929037A, “Modified α-D-Glc.rho.-(1-2)-α-D-Glc.rho.-(1-3)-α-D-Glc.rho.-ana logues” (Alberta Research Council, priority 1995, dated 1999).

Legend:
glucosidase I = biological target: T1, glucosidase I (Bos taurus, UniProt A0A3Q1M9D9); test: Assay for glucosidase I activity (14C-Glc3Man9GlcNAc2 substrate, ConA-Sepharose, scintillation counting); assay type: biochemical; settings: affinity purified glucosidase I from calf pancreas microsomes; for inhibition at 1000 µM: at 1 mM concentration, read-out: inhibition of glycosidase I activity
T1 construct: Glucosidase I was solubilized from calf pancreas microsomes; from tissue
T1 sequence (A0A3Q1M9D9 1-839): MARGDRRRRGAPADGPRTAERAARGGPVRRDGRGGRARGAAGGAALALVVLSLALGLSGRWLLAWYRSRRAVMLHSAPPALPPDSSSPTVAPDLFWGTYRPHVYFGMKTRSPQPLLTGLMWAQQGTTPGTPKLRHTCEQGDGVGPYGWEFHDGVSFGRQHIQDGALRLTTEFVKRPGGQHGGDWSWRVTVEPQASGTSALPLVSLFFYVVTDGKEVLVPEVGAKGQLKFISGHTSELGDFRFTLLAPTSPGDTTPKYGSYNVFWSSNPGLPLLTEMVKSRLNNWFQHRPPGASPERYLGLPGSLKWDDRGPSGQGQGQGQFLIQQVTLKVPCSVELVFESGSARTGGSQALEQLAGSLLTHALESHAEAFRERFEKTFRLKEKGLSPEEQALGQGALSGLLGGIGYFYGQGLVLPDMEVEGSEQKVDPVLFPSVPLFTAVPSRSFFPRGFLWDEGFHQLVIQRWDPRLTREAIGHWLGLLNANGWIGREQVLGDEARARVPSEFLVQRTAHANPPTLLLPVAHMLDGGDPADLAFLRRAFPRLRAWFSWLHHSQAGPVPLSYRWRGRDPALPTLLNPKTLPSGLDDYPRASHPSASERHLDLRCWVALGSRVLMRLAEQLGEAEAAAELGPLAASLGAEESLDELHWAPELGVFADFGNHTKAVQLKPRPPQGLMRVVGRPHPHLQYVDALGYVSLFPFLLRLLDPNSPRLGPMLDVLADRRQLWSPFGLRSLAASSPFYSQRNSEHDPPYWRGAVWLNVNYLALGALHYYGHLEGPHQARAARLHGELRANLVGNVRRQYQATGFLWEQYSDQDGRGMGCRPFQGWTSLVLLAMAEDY
Description: Some of the compounds which are modified analogues of the trisaccharides corresponding to the end tail of precursor oligosaccharides Glc3 Man9 GlcNAc2 -PP-Dol, were evaluated as inhibitors of glucosidase I activity. Glucosidase I was purified by a literature procedure as follows. To prepare an affinity matrix, carboxypentyl-deoxynojirimycin was coupled with Affigel 102 according to Shailubhai et al^19. Glucosidase I was solubilized from calf pancreas microsomes, and purified from glucosidase II activity by affinity chromatography according to the same authors.
^14 C-labelled Glc3 Man9 GlcNAc2 -PP-Dol was prepared by the incubation of UDP-[^14 C]Glc with calf pancreas microsomes as described by Herscovien et al^40. Glc3 Man9 GlcNAc2 was released by mild acid hydrolysis and purified by BioGel P4 chromatography.
Affinity purified glucosidase I was assayed as described by Saunier et al.^41 by adsorption of undigested substrate and oligosaccharide product to ConA-Sepharose and scintillation counting of [^14 C]Glc in the column eluent. Oligosaccharides as potential inhibitors were evaluated using castanospermine as a baseline inhibitor.

glucosidase = settings: cited from earlier work

| inhibition at 1000 µM (glucosidase I) | Structure (SMILES) | also measured |
| --- | --- | --- |
| 100% | COC(=O)CCCCCCCCO[C@H]1O[C@H](CO)[C@@H](O)[C@H](O[C@H]2O[C@H](CO)[C@@H](O)[C@H](O)[C@H]2O[C@H]2O[C@H](CO)[C@@H](O)[C@H](O)[C@H]2O)[C@H]1O [Compound 40, 8-methoxycarbonyloctyl 3-O-[2-O-(α-D-glucopyranosyl)-α-D-glucopyranosyl]-α-D-glucopyranoside] | – |
| 50% | COC(=O)CCCCCCCCO[C@H]1O[C@H](CO)[C@@H](O)[C@H](O[C@H]2O[C@H](CO)[C@@H](O)[C@H](O)[C@H]2O[C@H]2O[C@H](CO)[C@@H](O)C[C@H]2O)[C@H]1O [Compound 45, 8-methoxycarbonyloctyl 3-O-[2-O-(3-deoxy-α-D-glucopyranosyl)-α-D-glucopyranosyl]-α-D-glucopyranoside] | – |
| – | COC(=O)CCCCCCCCO[C@H]1O[C@H](CO)[C@@H](O)[C@H](O[C@H]2O[C@H](CO)[C@@H](O)[C@H](O)[C@H]2O[C@H]2O[C@H](C)[C@@H](O)[C@H](O)[C@H]2O)[C@H]1O [Compound 49, 8-Methoxycarbonyl 3-O-[2-O-(6deoxy-α-D-glucopyranosyl)-α-D-glucopyranosyl]-α-D-glucopyranoside] | glucosidase I inhibitory activity (result in words) (glucosidase I): completely eliminated |
| – | OC[C@H]1NC[C@H](O)[C@@H](O)[C@@H]1O [deoxynojirimycin] | concentration required to induce the inhibitory effect in vitro (glucosidase): at least 1 mmol/l |
